No end group written: not given here.
Legend:
[1] = Study of stability, packed samples stored at 2-8° C. for 6 months; format: physicochemical; details: for Conclusion: Character / Conclusion: Moisture / Conclusion: Polymer / Conclusion: Related substances (maximum single impurity) / Conclusion: The purity of chromatographic: up to 6 months
Protocol: The samples prepared in example 8 were packed in double-layer medical low-density polyethylene bags and a layer of aluminum-plastic composite bags and stored at 2-8° C. for evaluation at 1, 2, 3 and 6 months respectively.
The samples prepared in example 9 were packed in double-layer medical low-density polyethylene bags and a layer of aluminum-plastic composite bags and stored at 2-8° C. for evaluation at 1, 2, 3 and 6 months respectively.

[2] = target: T1, melanocortin receptor 2 (MC2R) (Homo sapiens, UniProt Q01718); assay: Activity in vitro: calcium ion signal in CHO-K1 cells expressing MC2R; format: cell-based; details: for Binding ability to MC2R and biological activity (in words) / Bottom / HillSlope / Top / EC50: CHO-K1 cells expressing MC2R; for Bottom / HillSlope / Top: curve fit; for Bottom / HillSlope / Top / EC50: calcium ion signal; for EC50: read-out: EC50 (half inhibitory concentration)
T1 construct: expressed in transfected cells; host or cells: CHO-K1
T1 sequence (Q01718 whole entry, species assumed): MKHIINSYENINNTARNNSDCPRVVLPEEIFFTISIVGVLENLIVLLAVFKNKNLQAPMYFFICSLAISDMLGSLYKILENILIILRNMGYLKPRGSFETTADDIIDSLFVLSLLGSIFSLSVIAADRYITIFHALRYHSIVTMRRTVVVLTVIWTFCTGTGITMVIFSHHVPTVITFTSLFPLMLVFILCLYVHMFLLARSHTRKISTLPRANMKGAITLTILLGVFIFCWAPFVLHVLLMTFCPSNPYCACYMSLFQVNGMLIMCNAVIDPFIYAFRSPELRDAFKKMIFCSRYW
T1 sequence (Q8TCY5 whole entry partner, species assumed): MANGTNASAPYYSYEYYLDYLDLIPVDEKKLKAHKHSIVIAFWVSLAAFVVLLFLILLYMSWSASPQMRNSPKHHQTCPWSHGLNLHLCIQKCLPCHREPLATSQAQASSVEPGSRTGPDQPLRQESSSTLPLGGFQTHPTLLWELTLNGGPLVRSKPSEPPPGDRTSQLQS
Protocol: ACTH was a receptor agonist of melanocortin receptor 2 (MC2R). The combination of ACTH and MC2R could stimulate the signal pathway of the downstream and change the signal factors such as calcium ions and cAMP. The binding ability of ACTH and MC2R was determined by detecting calcium ion signals, and then the cell activity of ACTH in vitro was judged.
The samples in example 8 and example 10 were taken for activity study in vitro. CHO-K1 cells expressing MC2R were cultured in 10 cm vessels and stored at 37° C. and 5% CO2.

[3] = system: infantile spasticity (IS) rat model; assay: Incubation period of spasticity in infantile spasticity (IS) rat model (betamethasone/NMDA); format: in vivo, Sprague Dawley (SD) rats
Protocol: (1) Method: To investigate the effect of SEQ ID NO.4 on the incubation period of spasticity in infantile spasticity (IS) rat model.
Incubation period: Time from NMDA injection to onset of spasticity (time is measured in units of seconds).
Sham group: Sprague Dawley (SD) rats were intraperitoneally injected with saline (10 mL/kg each time) at 9:00 am and 19:00 pm respectively on the 15th day of pregnancy, and the neonatal rats (n=12) were intraperitoneally injected with saline of the same volume as the drug group on the 15th day after birth. Model group (IS group): SD rats were intraperitoneally injected with betamethasone (0.4 mg/kg each time) at 9:00 am and 19:00 pm respectively on the 15th day of pregnancy. The neonatal rats (n=12) were intraperitoneally injected with N-methyl-D-aspartic acid (NMDA, 15 mg/kg) at 15:30 pm on the 15th day after birth to establish infant spasticity (neonatal spasticity) rat model, and the incubation period from NMDA injection to spasticity was recorded. […] After the second injection of SEQ ID NO.4 for 30 minutes (i.e. 15:30 pm), NMDA (15 mg/kg) was intraperitoneally injected to establish infant spasticity rat model, and the incubation period from NMDA injection to spasticity was recorded.

[4] = target: hERG (Homo sapiens, UniProt Q12809); assay: in vitro; details: human
Chain of hERG (Q12809 whole entry): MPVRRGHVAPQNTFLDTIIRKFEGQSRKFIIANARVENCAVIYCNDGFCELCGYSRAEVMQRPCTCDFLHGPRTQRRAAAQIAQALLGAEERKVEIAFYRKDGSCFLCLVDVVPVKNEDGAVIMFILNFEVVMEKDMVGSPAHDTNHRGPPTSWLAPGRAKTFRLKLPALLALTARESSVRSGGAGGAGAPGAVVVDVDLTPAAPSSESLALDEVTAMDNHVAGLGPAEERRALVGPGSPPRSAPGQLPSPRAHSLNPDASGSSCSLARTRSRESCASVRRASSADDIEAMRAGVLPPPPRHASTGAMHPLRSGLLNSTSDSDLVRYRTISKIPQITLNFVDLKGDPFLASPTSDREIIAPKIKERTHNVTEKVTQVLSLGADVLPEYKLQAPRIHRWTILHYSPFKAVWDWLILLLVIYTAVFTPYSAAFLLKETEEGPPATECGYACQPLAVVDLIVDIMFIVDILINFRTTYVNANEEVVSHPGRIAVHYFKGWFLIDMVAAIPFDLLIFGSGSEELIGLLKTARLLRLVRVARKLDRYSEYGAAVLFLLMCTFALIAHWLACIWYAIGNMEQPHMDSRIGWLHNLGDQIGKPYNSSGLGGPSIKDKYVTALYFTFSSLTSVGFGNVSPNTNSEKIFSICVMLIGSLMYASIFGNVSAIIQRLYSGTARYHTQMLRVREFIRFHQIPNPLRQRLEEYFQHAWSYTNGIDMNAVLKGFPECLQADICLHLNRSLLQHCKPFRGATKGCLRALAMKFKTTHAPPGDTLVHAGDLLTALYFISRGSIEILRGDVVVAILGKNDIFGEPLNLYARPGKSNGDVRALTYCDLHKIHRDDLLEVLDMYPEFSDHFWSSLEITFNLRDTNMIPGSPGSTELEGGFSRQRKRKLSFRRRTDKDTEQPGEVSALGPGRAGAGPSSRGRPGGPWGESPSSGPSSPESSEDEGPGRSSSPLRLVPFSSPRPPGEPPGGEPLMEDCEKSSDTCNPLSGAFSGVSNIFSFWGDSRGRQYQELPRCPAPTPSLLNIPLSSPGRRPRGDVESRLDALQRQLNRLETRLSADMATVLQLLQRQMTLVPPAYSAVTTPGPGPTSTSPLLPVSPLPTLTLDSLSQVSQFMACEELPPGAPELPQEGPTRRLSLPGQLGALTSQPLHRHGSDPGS
Excerpt: (§1) The cardiac […] toxicity of drugs was judged by detecting the affinity between drugs and heart receptor protein (hERG) in vitro.

[5] = target: heart receptor protein (hERG) (Homo sapiens, UniProt Q12809); assay: in vitro
Chain of heart receptor protein (hERG) (Q12809 whole entry): as above
Excerpt: as §1

H-SYSMEHFRWGKPVGKKRRPVKVYPNGAEDESAEAFPLEF-OH [Example 8]
Character (Visual) ([1]; 2-8° C., 1 month): White | Moisture, Karl Fischer ([1]; 2-8° C., 1 month): 7.3% | Polymer (impurity with molecular weight greater than the peptide), HPLC ([1]; 2-8° C., 1 month): 0.05% | Related substances (maximum single impurity), HPLC ([1]; 2-8° C., 1 month): 0.17% | Related substances (total impurities), HPLC ([1]; 2-8° C., 1 month): 0.29% | The purity of chromatographic, HPLC ([1]; 2-8° C., 1 month): 99.71% | Character (Visual) ([1]; 2-8° C., 2 months): White | Moisture, Karl Fischer ([1]; 2-8° C., 2 months): 7.5% | Polymer (impurity with molecular weight greater than the peptide), HPLC ([1]; 2-8° C., 2 months): 0.03% | Related substances (maximum single impurity), HPLC ([1]; 2-8° C., 2 months): 0.17% | Related substances (total impurities), HPLC ([1]; 2-8° C., 2 months): 0.29% | The purity of chromatographic, HPLC ([1]; 2-8° C., 2 months): 99.71% | Character (Visual) ([1]; 2-8° C., 3 months): White | Moisture, Karl Fischer ([1]; 2-8° C., 3 months): 8.4% | Polymer (impurity with molecular weight greater than the peptide), HPLC ([1]; 2-8° C., 3 months): 0.06% | Related substances (maximum single impurity), HPLC ([1]; 2-8° C., 3 months): 0.16% | Related substances (total impurities), HPLC ([1]; 2-8° C., 3 months): 0.38% | The purity of chromatographic, HPLC ([1]; 2-8° C., 3 months): 99.62% | Character (Visual) ([1]; 2-8° C., 6 months): White | Moisture, Karl Fischer ([1]; 2-8° C., 6 months): 8.3% | Polymer (impurity with molecular weight greater than the peptide), HPLC ([1]; 2-8° C., 6 months): 0.04% | Related substances (maximum single impurity), HPLC ([1]; 2-8° C., 6 months): 0.11% | Related substances (total impurities), HPLC ([1]; 2-8° C., 6 months): 0.39% | The purity of chromatographic, HPLC ([1]; 2-8° C., 6 months): 99.61% | Conclusion: Character ([1]; 2-8° C.): Qualified | Conclusion: Moisture ([1]; 2-8° C.): Qualified | Conclusion: Polymer ([1]; 2-8° C.): Qualified | Conclusion: Related substances (maximum single impurity) ([1]; 2-8° C.): Qualified | Conclusion: The purity of chromatographic ([1]; 2-8° C.): Qualified | Character (Visual) ([1]; Start): White | Moisture, Karl Fischer ([1]; Start): 5.0% | Polymer (impurity with molecular weight greater than the peptide), HPLC ([1]; Start): 0.03% | Related substances (maximum single impurity), HPLC ([1]; Start): 0.07% | Related substances (total impurities), HPLC ([1]; Start): 0.13% | The purity of chromatographic, HPLC ([1]; Start): 99.88% | Binding ability to MC2R and biological activity (in words) [2]: had binding ability to melanocortin receptor 2 (MC2R) and showed biological activity | Bottom [2]: −2.739 | HillSlope [2]: 0.9745 | Top [2]: 100.9 | Activity of high-purity ACTH relative to low-purity ACTH ([2]; ratio of EC50 values): 1.6 times

H-SYSMEHFRWGKPVGKKRRPVKVYPNGAEDESAEAFPLEF-OH [Example 10, reference compound]
Binding ability to MC2R and biological activity (in words) [2]: had binding ability to melanocortin receptor 2 (MC2R) and showed biological activity | Bottom [2]: −1.846 | HillSlope [2]: 1.249 | Top [2]: 94.88

SYSMEHFRWGKPVGKKRRPVKVYPDGAEDESAEAFPLEF (also: deamidated at N25 (given as D), Asp or isoAsp not given here) [Example 9]
Character (Visual) ([1]; 2-8° C., 1 month): White | Moisture, Karl Fischer ([1]; 2-8° C., 1 month): 7.5% | Polymer (impurity with molecular weight greater than the peptide), HPLC ([1]; 2-8° C., 1 month): 0.04% | Related substances (maximum single impurity), HPLC ([1]; 2-8° C., 1 month): 0.24% | Related substances (total impurities), HPLC ([1]; 2-8° C., 1 month): 0.42% | The purity of chromatographic, HPLC ([1]; 2-8° C., 1 month): 99.58% | Character (Visual) ([1]; 2-8° C., 2 months): White | Moisture, Karl Fischer ([1]; 2-8° C., 2 months): 7.6% | Polymer (impurity with molecular weight greater than the peptide), HPLC ([1]; 2-8° C., 2 months): 0.05% | Related substances (maximum single impurity), HPLC ([1]; 2-8° C., 2 months): 0.17% | Related substances (total impurities), HPLC ([1]; 2-8° C., 2 months): 0.43% | The purity of chromatographic, HPLC ([1]; 2-8° C., 2 months): 99.57% | Character (Visual) ([1]; 2-8° C., 3 months): White | Moisture, Karl Fischer ([1]; 2-8° C., 3 months): 8.5% | Polymer (impurity with molecular weight greater than the peptide), HPLC ([1]; 2-8° C., 3 months): 0.06% | Related substances (maximum single impurity), HPLC ([1]; 2-8° C., 3 months): 0.27% | Related substances (total impurities), HPLC ([1]; 2-8° C., 3 months): 0.46% | The purity of chromatographic, HPLC ([1]; 2-8° C., 3 months): 99.54% | Character (Visual) ([1]; 2-8° C., 6 months): White | Moisture, Karl Fischer ([1]; 2-8° C., 6 months): 8.6% | Polymer (impurity with molecular weight greater than the peptide), HPLC ([1]; 2-8° C., 6 months): 0.06% | Related substances (maximum single impurity), HPLC ([1]; 2-8° C., 6 months): 0.10% | Related substances (total impurities), HPLC ([1]; 2-8° C., 6 months): 0.49% | Stability under the storage condition (in words) ([1]; 2-8° C., 6 months): stable | The purity of chromatographic, HPLC ([1]; 2-8° C., 6 months): 99.51% | Conclusion: Character ([1]; 2-8° C.): Qualified | Conclusion: Moisture ([1]; 2-8° C.): Qualified | Conclusion: Polymer ([1]; 2-8° C.): Qualified | Conclusion: Related substances (maximum single impurity) ([1]; 2-8° C.): Qualified | Conclusion: The purity of chromatographic ([1]; 2-8° C.): Qualified | Character (Visual) ([1]; Start): White | Moisture, Karl Fischer ([1]; Start): 5.2% | Polymer (impurity with molecular weight greater than the peptide), HPLC ([1]; Start): 0.03% | Related substances (maximum single impurity), HPLC ([1]; Start): 0.16% | Related substances (total impurities), HPLC ([1]; Start): 0.42% | The purity of chromatographic, HPLC ([1]; Start): 99.58% | Incubation period of spasticity vs IS group ([3]; high-dose group 0.28 U/g i.p. twice, neonatal rats day 15, P<0.0001): significantly prolong | Incubation period of spasticity vs IS group ([3]; low-dose group 0.01 U/g i.p. twice, neonatal rats day 15, p<0.001): significantly prolong

SYSMEHFRWGKPVGKKRRPVKVYPNGAEDESAEAFPLEF [Example 8]
inhibition at 10000 nM [4]: -1.28% | Cardiac metabolic toxicity (in words) [5]: no cardiac metabolic toxicity | IC50 [5]: > 10000 nM | Stability under the storage condition (in words) ([1]; 2-8° C., 6 months): stable | EC50 [2]: 180 nM

SYSMEHFRWGKPVGKKRRPVKVYPNGAEDESAEAFPLEF [Example 10, reference compound]
Cardiac metabolic toxicity (in words) [5]: no cardiac metabolic toxicity | EC50 [2]: 288 nM

— patent US12433936B2, “High-purity adrenocorticotropic hormone analogue and a large-scale preparation method thereof” (Nanjing Hanxin Pharmaceutical Technology Co., Ltd., priority 2021, dated 2025)
